# Measurements as given in ChEMBL document CHEMBL1201862, “PubChem BioAssay data set” (2004).
#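 Assay format: 96-well plates, 48-hour exposure. GI50 marks 50% less growth.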 The source made the active and inactive calls. Rule as the data show it: active = GI50 up to about 1.1 µM and inactive = higher.
# Key:
# Test in all cases: inhibition of tumour cell growth, NCI panel, 48 h
# UO-31 = system: UO-31
# A498 = system: A498
# SK-OV-3 = system: SK-OV-3
# CCRF-CEM = system: CCRF-CEM
# NCI-H522 = system: NCI-H522
# NCI-H226 = system: NCI-H226
# EKVX = system: EKVX
# UACC-257 = system: UACC-257
# SR = system: SR
# SF-295 = system: SF-295
# U-251 = system: U-251
# HL-60 = system: HL-60
# NCI-H23 = system: NCI-H23
# DMS-114 = system: DMS-114
# HCT-15 = system: HCT-15
# K562 = system: K562
# SF-268 = system: SF-268
# IGROV-1 = system: IGROV-1
# OVCAR-3 = system: OVCAR-3
# OVCAR-5 = system: OVCAR-5
# TK-10 = system: TK-10
# DLD-1 = system: DLD-1
# SK-MEL-5 = system: SK-MEL-5
# COLO 205 = system: COLO 205
# 786-0 = system: 786-0
# UACC-62 = system: UACC-62
# SK-MEL-2 = system: SK-MEL-2
# ACHN = system: ACHN
# SNB-19 = system: SNB-19
# M14 = system: M14
# HCT-116 = system: HCT-116
# LOX IMVI = system: LOX IMVI
# LXFL 529 = system: LXFL 529
# HOP-92 = system: HOP-92
# M19-MEL = system: M19-MEL
# SW-620 = system: SW-620
# OVCAR-4 = system: OVCAR-4
# SN12C = system: SN12C
# SF-539 = system: SF-539
# A549 = system: A549
# HCC 2998 = system: HCC 2998
# MOLT-4 = system: MOLT-4
# SNB-78 = system: SNB-78
# OVCAR-8 = system: OVCAR-8
# HT-29 = system: HT-29
# NCI-H460 = system: NCI-H460
# SNB-75 = system: SNB-75
# SK-MEL-28 = system: SK-MEL-28
# RXF 393 = system: RXF 393
# KM-20L2 = system: KM-20L2
# KM12 = system: KM12
# Malme-3M = system: Malme-3M
# HOP-62 = system: HOP-62
# DMS-273 = system: DMS-273
# CAKI-1 = system: CAKI-1
# Hs-578T = system: Hs-578T
# NCI/ADR-RES = system: NCI/ADR-RES
# MCF7 = system: MCF7
# DU-145 = system: DU-145
# MDA-N = system: MDA-N
# MDA-MB-231 = system: MDA-MB-231
# MDA-MB-435 = system: MDA-MB-435
# BT-549 = system: BT-549
# PC-3 = system: PC-3
# RPMI-8226 = system: RPMI-8226
# T47D = system: T47D
# HOP-18 = system: HOP-18
structure (smiles),measurement,setting,value
Cc1nc(Nc2ccc(Cl)cc2)sc1C(=O)Nc1cccc2c(=O)[nH][nH]c(=O)c12,GI50,UO-31,31.8 µM (inactive)
same,GI50,A498,22.8 µM (inactive)
same,GI50,SK-OV-3,52.6 µM (inactive)
same,GI50,CCRF-CEM,16.9 µM (inactive)
same,GI50,NCI-H522,23.5 µM (inactive)
same,GI50,NCI-H226,83.6 µM (inactive)
same,GI50,EKVX,8.34 µM (inactive)
same,GI50,UACC-257,96.8 µM (inactive)
same,GI50,SR,21 µM (inactive)
same,GI50,SF-295,24.7 µM (inactive)
same,GI50,U-251,34.3 µM (inactive)
same,GI50,HL-60,8.75 µM (inactive)
same,GI50,NCI-H23,16.4 µM (inactive)
same,GI50,DMS-114,19.2 µM (inactive)
same,GI50,HCT-15,21.8 µM
same,GI50,K562,1.26 µM (inactive)
same,GI50,SF-268,31.8 µM (inactive)
same,GI50,IGROV-1,25.2 µM (inactive)
same,GI50,OVCAR-3,18.9 µM (inactive)
same,GI50,OVCAR-5,36.9 µM (inactive)
same,GI50,TK-10,> 100 µM (inactive)
same,GI50,DLD-1,17.5 µM (inactive)
same,GI50,SK-MEL-5,2.52 µM (inactive)
same,GI50,COLO 205,16 µM (inactive)
same,GI50,786-0,19 µM (inactive)
same,GI50,UACC-62,0.439 µM (active)
same,GI50,SK-MEL-2,30.4 µM (inactive)
same,GI50,ACHN,20.9 µM (inactive)
same,GI50,SNB-19,43.3 µM (inactive)
same,GI50,M14,17.6 µM (inactive)
same,GI50,HCT-116,24 µM (inactive)
same,GI50,LOX IMVI,13.6 µM (inactive)
same,GI50,LXFL 529,13.1 µM (inactive)
same,GI50,HOP-92,13.3 µM (inactive)
same,GI50,M19-MEL,30.3 µM (inactive)
same,GI50,SW-620,25.5 µM (inactive)
same,GI50,OVCAR-4,49.4 µM (inactive)
same,GI50,SN12C,36.1 µM (inactive)
same,GI50,SF-539,36.7 µM (inactive)
same,GI50,A549,33.1 µM (inactive)
same,GI50,HCC 2998,39.5 µM (inactive)
same,GI50,MOLT-4,19 µM (inactive)
same,GI50,SNB-78,> 100 µM (inactive)
same,GI50,OVCAR-8,> 100 µM (inactive)
same,GI50,HT-29,16.8 µM (inactive)
same,GI50,NCI-H460,25.8 µM (inactive)
same,GI50,SNB-75,28 µM (inactive)
same,GI50,SK-MEL-28,52.4 µM (inactive)
same,GI50,RXF 393,28.6 µM (inactive)
same,GI50,KM-20L2,11.8 µM (inactive)
same,GI50,KM12,51.8 µM (inactive)
same,GI50,Malme-3M,36 µM (inactive)
same,GI50,HOP-62,35.6 µM (inactive)
same,GI50,DMS-273,7.24 µM (inactive)
same,GI50,CAKI-1,33.2 µM (inactive)
CC1=CCC[C@@H]2[C@@](C)(Cc3cc(O)ccc3O)[C@H](C)CC[C@@]12C,GI50,UO-31,5.33 µM (inactive)
same,GI50,A498,15.3 µM (inactive)
same,GI50,SK-OV-3,12.6 µM (inactive)
same,GI50,Hs-578T,5.92 µM (inactive)
same,GI50,NCI/ADR-RES,5.24 µM (inactive)
same,GI50,CCRF-CEM,2.1 µM (inactive)
same,GI50,NCI-H522,4.83 µM (inactive)
same,GI50,NCI-H226,16.2 µM (inactive)
same,GI50,EKVX,6.5 µM (inactive)
same,GI50,UACC-257,11.5 µM (inactive)
same,GI50,SR,2.38 µM (inactive)
same,GI50,SF-295,7.28 µM (inactive)
same,GI50,U-251,3.89 µM (inactive)
same,GI50,HL-60,1.81 µM (inactive)
same,GI50,NCI-H23,5.87 µM (inactive)
same,GI50,MCF7,4.97 µM (inactive)
same,GI50,HCT-15,5 µM
same,GI50,K562,3.48 µM (inactive)
same,GI50,DU-145,10.3 µM (inactive)
same,GI50,SF-268,7.43 µM (inactive)
same,GI50,IGROV-1,4.76 µM (inactive)
same,GI50,OVCAR-3,4.69 µM (inactive)
same,GI50,OVCAR-5,13.4 µM (inactive)
same,GI50,TK-10,9.08 µM (inactive)
same,GI50,SK-MEL-5,5.43 µM (inactive)
same,GI50,COLO 205,18.2 µM (inactive)
same,GI50,786-0,6.49 µM (inactive)
same,GI50,UACC-62,10.5 µM (inactive)
same,GI50,SK-MEL-2,14.5 µM (inactive)
same,GI50,ACHN,6.25 µM (inactive)
same,GI50,SNB-19,7.57 µM (inactive)
same,GI50,M14,4.94 µM (inactive)
same,GI50,HCT-116,5.13 µM (inactive)
same,GI50,LOX IMVI,4.99 µM (inactive)
same,GI50,HOP-92,4.84 µM (inactive)
same,GI50,MDA-N,5.53 µM (inactive)
same,GI50,SW-620,6.52 µM (inactive)
same,GI50,MDA-MB-231,11.9 µM (inactive)
same,GI50,OVCAR-4,12.1 µM (inactive)
same,GI50,SN12C,9.2 µM (inactive)
same,GI50,SF-539,6.18 µM (inactive)
same,GI50,MDA-MB-435,5.2 µM (inactive)
same,GI50,A549,4.94 µM (inactive)
same,GI50,HCC 2998,7.66 µM (inactive)
same,GI50,BT-549,5.47 µM (inactive)
same,GI50,MOLT-4,3.48 µM (inactive)
same,GI50,PC-3,4.33 µM (inactive)
same,GI50,OVCAR-8,5.45 µM (inactive)
same,GI50,HT-29,17.7 µM (inactive)
same,GI50,RPMI-8226,3.44 µM (inactive)
same,GI50,NCI-H460,5.83 µM (inactive)
same,GI50,SNB-75,5.47 µM (inactive)
same,GI50,SK-MEL-28,8.81 µM (inactive)
same,GI50,RXF 393,6.44 µM (inactive)
same,GI50,KM12,4.54 µM (inactive)
same,GI50,Malme-3M,16.4 µM (inactive)
same,GI50,HOP-62,9.62 µM (inactive)
same,GI50,T47D,5.38 µM (inactive)
same,GI50,CAKI-1,11.3 µM (inactive)
CSc1nc(NC2OC(COC(C)=O)C(OC(C)=O)C(OC(C)=O)C2OC(C)=O)c(/N=C(\C)C(C)=O)c(=O)[nH]1 (stereo not drawn),GI50,UO-31,> 100 µM (inactive)
same,GI50,SK-OV-3,> 100 µM (inactive)
same,GI50,CCRF-CEM,> 100 µM (inactive)
same,GI50,NCI-H226,> 100 µM (inactive)
same,GI50,EKVX,> 100 µM (inactive)
same,GI50,UACC-257,> 100 µM (inactive)
same,GI50,SF-295,> 100 µM (inactive)
same,GI50,HL-60,> 100 µM (inactive)
same,GI50,DMS-114,> 100 µM (inactive)
same,GI50,K562,> 100 µM (inactive)
same,GI50,IGROV-1,> 100 µM (inactive)
same,GI50,OVCAR-3,> 100 µM (inactive)
same,GI50,TK-10,> 100 µM (inactive)
same,GI50,DLD-1,79.1 µM (inactive)
same,GI50,SK-MEL-5,> 100 µM (inactive)
same,GI50,COLO 205,> 100 µM (inactive)
same,GI50,786-0,> 100 µM (inactive)
same,GI50,UACC-62,> 100 µM (inactive)
same,GI50,SK-MEL-2,> 100 µM (inactive)
same,GI50,SNB-19,> 100 µM (inactive)
same,GI50,M14,> 100 µM (inactive)
same,GI50,HCT-116,> 100 µM (inactive)
same,GI50,HOP-92,> 100 µM (inactive)
same,GI50,M19-MEL,> 100 µM (inactive)
same,GI50,SW-620,> 100 µM (inactive)
same,GI50,OVCAR-4,> 100 µM (inactive)
same,GI50,HOP-18,> 100 µM (inactive)
same,GI50,SF-539,> 100 µM (inactive)
same,GI50,A549,> 100 µM (inactive)
same,GI50,HCC 2998,> 100 µM (inactive)
same,GI50,MOLT-4,> 100 µM (inactive)
same,GI50,SNB-78,> 100 µM (inactive)
same,GI50,OVCAR-8,> 100 µM (inactive)
same,GI50,HT-29,> 100 µM (inactive)
same,GI50,RPMI-8226,> 100 µM (inactive)
same,GI50,KM12,> 100 µM (inactive)
same,GI50,Malme-3M,> 100 µM (inactive)
same,GI50,HOP-62,42.5 µM (inactive)
same,GI50,CAKI-1,> 100 µM (inactive)
